# Experimental data taken from patent publication US20060166892A1, “Treatment of cell proliferative disorders with chlorotoxin” (priority 2002, published 2006).
# Like-named read-outs stand apart in the source and are kept apart here. Ends that are not written are not given here. * marks the point of attachment. Biotin = O=C1N[C@H]2[C@H](CS[C@H]2CCCCC(=O)*)N1
# What was measured:
# [1] = tested on: PC3 prostate cancer cells; assay: Binding of biotinylated peptides to PC3 cells, HRP-avidin detection; set-up: species or system human; details: chlorotoxin binding assay, FIG. 11
# Experimental: To identify core binding site sequences of chlorotoxin, twenty-seven overlapping 10-mers derived from SEQ 1) NO: 1 were synthesized, starting from the C-terminus of the peptide as indicated in FIG. 7.
# Binding of the 10-mer peptides to PC3 prostate cancer cells in vitro was measured by incubating cultured PC3 cells with individual peptides. Binding was detected and quantified by incubating the peptide exposed cells with HRP-avidin using a commercial kit according to manufacturer's instructions.
# (SEQ ID NO: 10) sequentially as depicted in Table 5.
# In order to compare binding of the short scorpion toxins, the regions homologous to peptide 21 of small toxin and probable toxin LQH-8/6 were synthesized and biotinylated for analysis in the chlorotoxin binding assay. (See Table 6 for amino acid sequences of the peptides).
# D54MG Glioblastoma cells = details: 24 h
# Experimental: The purpose of this experiment was to determine if the proliferation D54MG Glioblastoma cells, as measured by ^3H-thymidine uptake, is effected by Peptide 21, a segment of the full chlorotoxin sequence. The sequence of peptide 21 and its relation to chlorotoxin is shown in the sequence below:
# D54MG cells were plated in a 24 well plate at 100,000 cells/ml/well using five rows of four wells for each concentration. The cells were allowed to adhere in normal media for twenty-four hours at 37° C. and 5% carbon dioxide. TM-701 was diluted to a […] stock solution and added to each row at the concentrations of 0, 20, 80, 160 and 320 nM.
# The cells and peptide 21 were allowed to incubate for 24 hours at 37° C. and 5% carbon dioxide. After twenty-four hours, the cells were rinsed two times with warm PBS. Normal media was added back to the cells at 1 ml/well. One μCi of ^3H-thymidine was added to each well (1 μl of 1 mCi/ml ^3H-thymidine to each well). The plate was incubated for two hours at 37° C. The media and thymidine were removed and the wells were rinsed with ice-cold phosphate-buffered saline three times. To each well was added 1 ml of 0.3 N NaOH. The plate was incubated in the 37° C. incubator for thirty minutes. Each well of 0.3 N NaOH was pipetted up and down three to four times and removed from the plate and the solution was placed in scintillation vials for counting. Scintillation fluid at four times the amount of sample was added to the vials (4 ml). Each vial was counted on the scintillation counter for one minute.
Substance,binding in PC3 human prostate cancer cells [1],"uptake of 3H-thymidine, trend over 20 to 320 nM (D54MG Glioblastoma cells; FIG. 12)",3H-Thymidine uptake ± SD (D54MG Glioblastoma cells; peptide 21 at 20 nM),3H-Thymidine uptake ± SD (D54MG Glioblastoma cells; peptide 21 at 80 nM),3H-Thymidine uptake ± SD (D54MG Glioblastoma cells; peptide 21 at 160 nM),3H-Thymidine uptake ± SD (D54MG Glioblastoma cells; peptide 21 at 320 nM)
Biotin-TTDHQMARKS [peptide 21],232.50 % of background levels,decreases in a does-dependent manner,7795 ± 634 CPM,7412 ± 630 CPM,6983 ± 329 CPM,5782 ± 886 CPM
"TTDPQMSKK [21ST, region of small toxin homologous to peptide 21, synthesized and biotinylated]",225.26 % of background levels,,,,,
"TTDQQMTKK [21LQ, region of probable toxin LQH-8/6 homologous to peptide 21, synthesized and biotinylated]",242.32 % of background levels,,,,,
negative peptide (GKCYGPQCLC; Chlorotoxin; listed as Leiurus quinquestriatus) [reference compound],110 % of background levels,,,,,
